Several values for one entry are separate records, joined by “and”; a condition that tells them apart may be missing. Identical values can stand only once.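 Protocol summary: plate cells (96-well), add compound at 5 concentrations, incubate 48 h, interpolate endpoints linearly. GI50: concentration for 50% inhibition of growth. TGI: concentration producing complete growth inhibition.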
Legend:
Assay in all cases: inhibition of tumour cell growth, NCI panel, 48 h
[1] = test system: 786-0 renal
[2] = test system: DLD-1 colon
[3] = test system: DMS 114 small cell lung
[4] = test system: DMS 273 small cell lung
[5] = test system: MOLT-4 leukemia
[6] = test system: OVCAR-3 ovarian
[7] = test system: RPMI-8226 leukemia
[8] = test system: SF-268 CNS
[9] = test system: SNB-78 CNS
[10] = test system: SR leukemia
[11] = test system: OVCAR-4 ovarian
[12] = test system: MDA-MB-231 breast

Structure (SMILES)	TGI [1]	TGI [2] [µM]	TGI [3] [µM]	TGI [4] [µM]	TGI [5]	TGI [6]	TGI [7]	TGI [8] [µM]	TGI [9] [µM]	TGI [10] [µM]	TGI [11]	TGI [12]	GI50 [1] [µM]	GI50 [12] [µM]	GI50 [5] [µM]	GI50 [6] [µM]	GI50 [7] [µM]	GI50 [10] [µM]
C1=CC2CCC1CN2CCC1CNc2ccccc21 (stereo unspecified)	> 100 µM	> 100	> 100	> 100	> 100 µM	> 100 µM	> 100 µM	> 100	> 100	> 100	–	–	–	–	–	–	–	–
CCCCC1(C(NC(=O)c2ccccc2Cl)c2ccncc2)C(=O)N(c2ccccc2)N(c2ccccc2)C1=O (stereo unspecified)	> 100 µM	> 100	> 100	> 100	50.3 µM	> 100 µM	84.1 µM	> 100	> 100	93.9	–	–	–	–	–	–	–	–
COc1ccc(/C=N/NS(=O)(=O)c2ccccc2)cc1	> 100 µM	> 100	> 100	> 100	> 100 µM	> 100 µM	> 100 µM	> 100	> 100	> 100	> 100 µM	–	–	–	–	–	–	–
COc1ccc(Br)c(C(=O)N2CCc3ccccc32)c1N	> 100 µM	> 100	79.4	99.3	> 100 µM	66.2 µM	> 100 µM	–	> 100	79.1	> 100 µM	–	–	–	–	–	–	–
CC1(C)OC(=O)C(=C2CCC(C(=O)Nc3cccc(C(F)(F)F)c3)N2)C(=O)O1 (stereo unspecified)	> 100 µM	> 100	> 100	> 100	> 100 µM	> 100 µM	> 100 µM	> 100	> 100	–	> 100 µM	–	–	–	–	–	–	–
CNC(=O)OCc1nc(SC)n(C)c1COC(=O)NC	413 µM	494	199	251	142 µM	444 µM	736 µM	450	359	473	281 µM	430 µM	–	–	–	–	–	–
O=C(/C=C/c1ccccc1O)c1ccccc1Cl	> 100 µM	> 100	58	> 100	84.1 µM	> 100 µM	–	> 100	> 100	76.5	> 100 µM	–	–	–	–	–	–	–
COc1ccccc1C(=O)N(Cc1ccccc1)c1ccc(Cl)c(C(=O)OC(C)C)c1	> 100 µM	> 100	56	37.5	66.3 µM	> 100 µM	29 µM	> 100	78	–	> 100 µM	> 100 µM	–	–	–	–	–	–
NC1=NCN(C2OC(CO)C(O)C2O)C(=O)N1 (stereo unspecified)	2050 µM	1560	437	620	152 µM	361 µM	159 µM	2460	1780	278	1510 µM	568 µM	–	–	–	–	–	–
COc1cccc(/C=N\NC(=O)C(C)SC(C)C(=O)N/N=C/c2cccc(OC)c2)c1 (stereo unspecified)	31.6 µM	> 100	41.6	97	> 100 µM	39.3 µM	> 82.3 µM	97.5	> 100	> 100	31.9 µM	–	–	–	–	–	–	–
NCCCN=c1ccc2c3c1c(O)c1c(O)ccc(=O)c1c3[nH]n2CCNCCO	11.4 µM and 5.28 µM	159	> 250	0.403	7.68 µM and 19.4 µM	17.4 µM and 22.5 µM	9.94 µM and 22.3 µM	6.51	4.15	–	10.5 µM and 20.1 µM	12.3 µM and 25 µM	0.723	2.43	0.343	4.18	2.93	0.291
Cc1nc2ccccc2c(=O)n1/N=C(\N=Nc1cc(Cl)ccc1Cl)c1ccccc1	> 100 µM	> 100	82.4	> 100	> 100 µM	> 100 µM	> 100 µM	> 100	–	> 100	> 100 µM	> 100 µM	–	–	–	–	–	–
COc1cc2c(c(OC)c1OC)C(=O)NCCC2	> 100 µM	> 100	> 100	> 100	> 100 µM	> 100 µM	> 100 µM	> 100	> 100	> 100	> 100 µM	–	–	–	–	–	–	–
N#CCc1cccc(CC#N)c1Br	> 100 µM	> 100	> 100	> 100	> 100 µM	> 100 µM	> 100 µM	> 100	> 100	> 100	> 100 µM	–	–	–	–	–	–	–
C[C@H]1CC[P+](C)(c2ccccc2)C1 (stereo partly specified)	> 100 µM	> 100	> 100	> 100	> 100 µM	> 100 µM	> 100 µM	–	> 100	> 100	–	–	–	–	–	–	–	–
Cc1cc(C)nc(NS(=O)(=O)c2ccc(Nc3c4ccccc4nc4c(C(=O)NCCN(C)C)cccc34)cc2)n1	25.2 µM	21.7	17.5	11.2	1.61 µM	–	–	20.1	45.2	43.7	11.9 µM	–	–	–	–	–	–	–
O=C1OC(=O)C([Se]c2ccccc2)=C1[Se]c1ccccc1	> 100 µM	> 100	> 100	–	> 100 µM	> 100 µM	> 100 µM	> 100	> 100	> 100	> 100 µM	–	–	–	–	–	–	–
O=C1C(=O)C2(CC1S(=O)(=O)c1ccccc1)c1ccccc1-c1ccccc12 (stereo unspecified)	82.5 µM	66.1	53.3	36.2	50.5 µM	> 10 µM	58.9 µM	76.7	45.6	50	> 100 µM	–	–	–	–	–	–	–
COc1cc(OC)c2c(=O)c3cccc([N+](=O)[O-])c3n(C)c2c1	> 100 µM	–	> 100	> 100	> 100 µM	–	> 100 µM	> 100	> 100	–	> 100 µM	–	–	–	–	–	–	–
Cc1ccc(S(=O)C(C)C(Cl)c2ccccc2)cc1 (stereo unspecified)	> 100 µM	> 100	> 100	> 100	> 100 µM	> 100 µM	> 100 µM	> 100	> 100	> 100	> 100 µM	–	–	–	–	–	–	–
O=C1CCC(=O)N1Sc1ccccc1	> 100 µM	> 100	> 100	> 100	> 100 µM	> 100 µM	> 100 µM	> 100	> 100	–	> 100 µM	–	–	–	–	–	–	–
O=C(O)CSc1n[nH]c(-c2ccco2)n1	> 100 µM	> 100	–	> 100	> 100 µM	> 100 µM	> 100 µM	–	> 100	–	> 100 µM	–	–	–	–	–	–	–
Cc1ccc(OC(=O)N2C/C(=C\c3ccccc3)C(=O)/C(=C/c3ccccc3)C2)cc1	35.9 µM	28.1	59.4	18.1	18.5 µM	37.4 µM	1.9 µM	98.5	82.3	13.2	32.2 µM	70.2 µM	–	–	–	–	–	–
CN(C)CCN1CCc2c([nH]c3ccccc23)C1c1cccnc1 (stereo unspecified)	> 100 µM	> 100	> 100	> 100	> 100 µM	> 100 µM	> 100 µM	> 100	> 100	> 100	> 100 µM	–	–	–	–	–	–	–

Reference: PubChem BioAssay (NCI)
